{
  "source": "patent US9243029B2",
  "about": "“Crystalline oxidized glutathione and production method therefor” (Kyowa Hakko Bio Co., Ltd., priority 2010, dated 2016)",
  "test": "Hygroscopic property (preservation stability) at 23° C., ambient pressure, humidity 70%",
  "format": "physicochemical",
  "settings": "humidity of 70%",
  "source_text": "Hereinafter, the preservation stability (hygroscopic property) of the crystal of oxidized glutathione according to the present invention will be described in detail with reference to Test Example.",
  "data": [
    {"substance": "oxidized glutathione [Reference Example 1]", "values": [
      {"measurement": "Hygroscopic property (moisture absorption / change in water content)", "result": "markedly absorbed moisture"},
      {"measurement": "Time until deliquesced", "result": 2, "unit": "days"}
    ]}
  ]
}
